Like-named read-outs stand apart in the source and are kept apart here.
Legend:
Format in all cases: cell-based
Settings in all cases: Homo sapiens
[1] = tested on: MDA-MB-435s cells (human melanoma cells); assay: MDA-MB-435s cell proliferation inhibitory assay (CellTiter-Glo)
Experimental: (§1) • 1). […] Resuspend an appropriate amount of cell suspension to 3000 cells/100 μL according to the count, mixed well and then put the corresponding number of cells into a 96-well plate by pipette. • 3). Each hole of the edge was sealed with 100 μL DPBS and put into an incubator for culture. • 4). Day 1 drug addition: Prepare the storage solution of the compound to be tested 1 hour in advance. 24 h after plating, the culture medium was gradiently diluted to a concentration twice the final concentration of each group. Take out the plated cells from the incubator and add 100 μL of the corresponding 2-fold concentration medium to each well by pipette. • 5). Day 1 detected: Take out an appropriate amount of CTG 1 h in advance and the plate was allowed to equilibrate at room temperature for 30 min. 100 μL of CTG was added to each well and shaken for 5 mins, and then standed in the dark for 5 mins, the luminescence value was detected by ELISA. • 6). Day 4 detection: Take an appropriate amount of CTG 1 h in advance and rewarm it at room temperature in the dark. At the same time, take out the plate to be tested from the incubator and leave it to equilibrate at room temperature for 30 minutes; 72 h after adding the drug, 100 μL of culture medium was sucked out with pipette carefully from each cell well, and 100 μL of CTG was added. The mixture was shaken for 5 min, and after equilibration in the dark for 5 min, the luminescence value was detected with ELISA. • 7). Analyze data and write detailed experimental records.
Collect data and convert it into survival rate: Inhibition rate (%)=(100−(OD value of compound−OD value on the first day)/(OD value of control well-OD value on the first day))×100%
(§2) Input the compound into graphpad prism to obtain the corresponding IC50 value.

[2] = tested on: MCF-7 cells (human breast cancer cells); assay: MCF-7 cell proliferation inhibitory assay (CellTiter-Glo)
Experimental: • 1). […] Resuspend an appropriate amount of cell suspension to 4000 cells/100 μL according to the count, mixed well and then put the corresponding number of cells into a 96-well plate by pipette. • 3). Each hole of the edge was sealed with 100 μL DPBS and put into an incubator for culture. • 4). Day 1 drug addition: Prepare the storage solution of the compound to be tested 1 hour in advance. 24 h after plating, the culture medium was gradiently diluted to a concentration twice the final concentration of each group. Take out the plated cells from the incubator and add 100 μL of the corresponding 2-fold concentration medium to each well by pipette.
Day 1 detected: Take out the plate to be tested and an appropriate amount of CTG in advance and rewarm it at room temperature in the dark. 50 μL of CTG was added to each well at 24 h. Shake with the oscillator for 5 minutes, and after balancing in the dark for 5 minutes, detect the luminescence value with a microplate reader; The mixture was shaken for 5 min, and after equilibration in the dark for 5 min, the luminescence value was detected with ELISA. • 6). Day 4 detection: Take an appropriate amount of CTG 1 h in advance and rewarm it at room temperature in the dark. At the same time, take out the plate to be tested from the incubator and leave it to equilibrate at room temperature for 30 minutes; 72 h after adding the drug, 100 μL of culture medium was sucked out with pipette carefully from each cell well, and 50 μL of CTG was added. The mixture was shaken for 5 min, and after equilibration in the dark for 5 min, the luminescence value was detected with ELISA analyzer. • 7). Data analysis and processed.
Collect data and convert it into survival rate: Inhibition rate (%)=(100−(OD value of compound-OD value on the first day)/(OD value of control well-OD value on the first day))×100%
as §2

[3] = tested on: MDA-MB-231 cells (human breast cancer cells); assay: MDA-MB-231 cell proliferation inhibitory assay (CellTiter-Glo)
Experimental: as §1, §2

[4] = MDA-MB-435S, 72 h, read-out: Proliferation inhibition IC50
[5] = MCF7, 72 h, read-out: Proliferation inhibition IC50
[6] = MDA-MB-231, 72 h, read-out: Proliferation inhibition IC50
[7] = MDA-MB-435s cells, 72 h after adding the drug, Table 3, read-out: Proliferation inhibition IC50
[8] = MCF7, MCF-7 cells, 72 h after adding the drug, Table 1, read-out: Proliferation inhibition IC50
[9] = MDA-MB-231 cells, 72 h after adding the drug, Table 2, read-out: Proliferation inhibition IC50

Row | Compound | IC50 [1, 4] | IC50 [2, 5] | IC50 [3, 6] | further results
1 | CC[C@@]1(O)C(=O)OCc2c1cc1n(c2=O)Cc2c-1nc1cc(F)c(C)cc1c2[C@@H](N)CO [Example 39a] | 2.12 nM | 9.8 nM | 25.9 nM | 
2 | CC[C@@]1(O)C(=O)OCc2c1cc1n(c2=O)Cc2c-1nc1cc3c(cc1c2[C@@H](C)N)OCCO3 [Example 36b] | 3.15 nM | 8.3 nM | 15.4 nM | 
3 | CC[C@@]1(O)C(=O)OCc2c1cc1n(c2=O)Cc2c-1nc1cc(F)c(C(F)(F)F)cc1c2[C@@H](C)N [Example 34b] | 2.85 nM | 4.2 nM | 8.8 nM | 
4 | CC[C@@]1(O)C(=O)OCc2c1cc1n(c2=O)Cc2c-1nc1cc(F)c(C)cc1c2[C@H](C)NC(=O)[C@@H](O)C(F)(F)F [Example 19] | 15.3 nM | 15.2 nM | 261 nM | 
5 | CC[C@@]1(O)C(=O)OCc2c1cc1n(c2=O)Cc2c-1nc1cc(F)c(C)cc1c2[C@@H]1CCCN1 [Example 8] | 35.2 nM | 10.3 nM | 210 nM | 
6 | CC[C@@]1(O)C(=O)OCc2c1cc1n(c2=O)Cc2c-1nc1cc3c(cc1c2[C@H](C)N)OCCO3 [Example 36a] | 6.33 nM | 15.2 nM | 26.3 nM | 
7 | CC[C@@]1(O)C(=O)OCc2c1cc1n(c2=O)Cc2c-1nc1cc(F)c(C)cc1c2[C@@H](C)N1CCN(C)CC1 [Example 42b] | 2.56 nM | 6.6 nM | 75.6 nM | 
8 | CC[C@@]1(O)C(=O)OCc2c1cc1n(c2=O)Cc2c-1nc1cc(F)c(C)cc1c2[C@@H](C)NCCNC [Example 25d] |  |  |  | IC50 [1, 7]: 5.2 nM; IC50 [2, 8]: 22.3 nM; IC50 [3, 9]: 50.3 nM
9 | CC[C@@]1(O)C(=O)OCc2c1cc1n(c2=O)Cc2c-1nc1cc(F)c(C)cc1c2[C@@H](C)N1CCNCC1 [Example 41b] | 3.86 nM | 19.6 nM | 30.5 nM | 
10 | CC[C@@]1(O)C(=O)OCc2c1cc1n(c2=O)Cc2c-1nc1cc(F)c(C)cc1c2[C@H](C)[N+](C)(C)C [Example 24] | 6.6 nM | 10.2 nM | 80.1 nM | 
11 | CC[C@@]1(O)C(=O)OCc2c1cc1n(c2=O)Cc2c-1nc1cc(F)c(C)cc1c2[C@H](C)NC(=O)[C@@H](C)O [Example 15] | 4.2 nM | 10.6 nM | 141 nM | 
12 | CC[C@@]1(O)C(=O)OCc2c1cc1n(c2=O)Cc2c-1nc1cc(F)c(C)cc1c2[C@@H](C)O [Example 12d] | 1.6 nM | 6.8 nM | 12.3 nM | IC50 ([1]; MDA-MB-435S, read-out: MDA-MB-435s Proliferation inhibition IC50): 1.6 nM; IC50 ([2]; MCF7, read-out: MCF-7 Proliferation inhibition IC50): 6.8 nM; IC50 ([3]; MDA-MB-231, read-out: MDA-MB-231 Proliferation inhibition IC50): 12.3 nM
13 | CC[C@@]1(O)C(=O)OCc2c1cc1n(c2=O)Cc2c-1nc1cc(F)c(C)cc1c2[C@H](C)NCCNC [Example 25c] | 3.3 nM | 15.3 nM | 35.6 nM | 
14 | CC[C@@]1(O)C(=O)OCc2c1cc1n(c2=O)Cc2c-1nc1cc(F)c(C)cc1c2[C@@H](N)C(F)(F)F [Example 40a] | 4.12 nM | 6.6 nM | 50 nM | 
15 | CC[C@@]1(O)C(=O)OCc2c1cc1n(c2=O)Cc2c-1nc1cc(F)c(C)cc1c2[C@H](N)C(F)(F)F [Example 40b] | 2.65 nM | 3.5 nM | 25.7 nM | 
16 | [2H]C([2H])(O)C(=O)N[C@@H](C)c1c2c(nc3cc(F)c(C)cc13)-c1cc3c(c(=O)n1C2)COC(=O)[C@]3(O)CC [Example 20] | 2.7 nM | 7.8 nM | 120 nM | 
17 | CC[C@@]1(O)C(=O)OCc2c1cc1n(c2=O)Cc2c-1nc1ccc(O)cc1c2[C@H](C)O [Example 12-1] | 38.2 nM | 32.2 nM | 500 nM | 
18 | CC[C@@]1(O)C(=O)OCc2c1cc1n(c2=O)Cc2c-1nc1cc(F)c(C)cc1c2[C@H](C)N(C)C [Example 22] | 5.6 nM | 9.3 nM | 60.8 nM | 

Row | Compound | IC50 [1, 4] | IC50 [2, 5] | IC50 [3, 6] | further results
19 | CC[C@@]1(O)C(=O)OCc2c1cc1n(c2=O)Cc2cc3ccccc3nc2-1 [Camptothecin] | 10.2 nM | 42.2 nM |  | 
20 | CC[C@@]1(O)C(=O)OCc2c1cc1n(c2=O)Cc2c-1nc1ccc(C(F)F)cc1c2[C@H](C)N [Example 32a] | 3.37 nM | 7.5 nM | 16.7 nM | 
21 | CC[C@@]1(O)C(=O)OCc2c1cc1n(c2=O)Cc2c-1nc1ccc(OC)cc1c2[C@@H](C)O [Example 31d] | 2.3 nM | 8.1 nM | 8.3 nM | 
22 | CC[C@@]1(O)C(=O)OCc2c1cc1n(c2=O)Cc2c-1nc1cc(F)c(C)cc1c2[C@@H](C)NC(C)=O [Compound 1f-1] | 5.8 nM | 15.2 nM | 110 nM | 
23 | CC[C@@]1(O)C(=O)OCc2c1cc1n(c2=O)Cc2c-1nc1cc(F)c(C)cc1c2[C@H](C)NC [Example 21] | 1.2 nM | 4.2 nM | 20.2 nM | 
24 | CC[C@@]1(O)C(=O)OCc2c1cc1n(c2=O)Cc2c-1nc1cc(F)c(C)cc1c2[C@H](C)N1CCNCC1 [Example 41a] | 5.12 nM | 28.6 nM | 100 nM | 
25 | CC[C@@]1(O)C(=O)OCc2c1cc1n(c2=O)Cc2c-1nc1cc(F)c(F)cc1c2[C@H](C)N [Example 33a] | 2.36 nM | 6.5 nM | 10.9 nM | 
26 | CC[C@@]1(O)C(=O)OCc2c1cc1n(c2=O)Cc2c-1nc1cc3c(cc1c2[C@H](C)N)OCO3 [Example 35a] | 3.33 nM | 10.3 nM | 20.6 nM | 
27 | [2H]C([2H])([2H])c1cc2c([C@H](C)N)c3c(nc2cc1F)-c1cc2c(c(=O)n1C3)COC(=O)[C@]2(O)CC [Example 23] | 0.76 nM | 2.5 nM | 7.7 nM | 
28 | CC[C@@]1(O)C(=O)OCc2c1cc1n(c2=O)Cc2c-1nc1ccc(OC)cc1c2[C@@H](C)N [Example 31b] | 1 nM | 4.1 nM | 9.2 nM | 
29 | CC[C@@]1(O)C(=O)OCc2c1cc1n(c2=O)Cc2c-1nc1ccc(O)cc1c2[C@@H](C)N [Example 5] | 20.3 nM | 12.3 nM | 600 nM | 
30 | [2H]C([2H])([2H])[C@@H](N)c1c2c(nc3cc(F)c(C)cc13)-c1cc3c(c(=O)n1C2)COC(=O)[C@]3(O)CC [Example 43b] |  |  |  | IC50 [1, 7]: 0.65 nM; IC50 [2, 8]: 2.7 nM; IC50 [3, 9]: 8 nM
31 | CC[C@@]1(O)C(=O)OCc2c1cc1n(c2=O)Cc2c-1nc1cc(F)c(C)c(C)c1c2[C@H](C)N [Example 29a] | 2.1 nM | 4.5 nM | 10 nM | 
32 | CC[C@@]1(O)C(=O)OCc2c1cc1n(c2=O)Cc2c-1nc1cc(F)c(C)cc1c2[C@@H](C)NS(C)(=O)=O [Example 26a] | 2.8 nM | 13.3 nM | 89.2 nM | 
33 | CC[C@@]1(O)C(=O)OCc2c1cc1n(c2=O)Cc2c-1nc1cc(F)c(C)cc1c2[C@@H](C)NCCN(C)C [Example 25b] | 9.6 nM | 35.1 nM | 60.9 nM | 
34 | CC[C@@]1(O)C(=O)OCc2c1cc1n(c2=O)Cc2c-1nc1ccccc1c2[C@H](C)N [Example 4] | 16.3 nM | 10.2 nM | 280 nM | 
35 | CC[C@@]1(O)C(=O)OCc2c1cc1n(c2=O)Cc2c-1nc1cc(F)c(C)cc1c2[C@H](N)CO [Example 39b] | 1.65 nM | 4.6 nM | 9.1 nM | 
36 | CC[C@@]1(O)C(=O)OCc2c1cc1n(c2=O)Cc2c-1nc1cc(F)c(C)cc1c2[C@H](C)NCCO [Example 25] | 10.2 nM | 30.2 nM | 261 nM | 
